Measured values published in ChEMBL document CHEMBL1201862, “PubChem BioAssay data set” (2004).
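Protocol summary: plate cells (96-well), add compound at 5 concentrations, incubate 48 h, interpolate endpoints linearly. GI50: concentration for 50% inhibition of growth.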 Activity calls are given as the source filed them. Rule as the data show it: active = GI50 up to about 1.1 µM and inactive = higher.

Legend:
Test in all cases: NCI tumour cell line growth inhibition, 48 h
786-0 = system: 786-0
A498 = system: A498
COLO 205 = system: COLO 205
HCT-116 = system: HCT-116
HOP-62 = system: HOP-62
HT-29 = system: HT-29
LOX IMVI = system: LOX IMVI
NCI-H460 = system: NCI-H460
OVCAR-4 = system: OVCAR-4
OVCAR-5 = system: OVCAR-5
RPMI-8226 = system: RPMI-8226
SF-295 = system: SF-295
SK-MEL-28 = system: SK-MEL-28
SN12C = system: SN12C
SNB-75 = system: SNB-75
SW-620 = system: SW-620
UACC-257 = system: UACC-257
UO-31 = system: UO-31
MDA-MB-231 = system: MDA-MB-231

Measured: GI50

CC(C)NC(=O)CCN(C(=O)O)S(=O)(=O)c1ccc(NC(=O)c2ccccc2)cc1
inactive: 786-0 > 79.6 µM | A498 > 100 µM | COLO 205 > 40.6 µM | HCT-116 > 39.7 µM | HOP-62 > 100 µM | HT-29 > 58.1 µM | LOX IMVI 39.9 µM | NCI-H460 > 43.2 µM | OVCAR-4 > 100 µM | OVCAR-5 > 100 µM | RPMI-8226 34.8 µM | SF-295 > 100 µM | SK-MEL-28 > 100 µM | SN12C > 100 µM | SNB-75 > 100 µM | SW-620 27.7 µM | UACC-257 > 51.9 µM | UO-31 > 100 µM

COC(=O)C1(F)C(=O)NC(=O)NC1OC (centres undefined)
inactive: 786-0 39.7 µM | A498 > 100 µM | COLO 205 68.5 µM | HCT-116 7.8 µM | HOP-62 25.5 µM | HT-29 22.2 µM | LOX IMVI 11.9 µM | NCI-H460 3.52 µM | OVCAR-4 > 100 µM | OVCAR-5 > 100 µM | RPMI-8226 90.6 µM | SF-295 > 100 µM | SK-MEL-28 59.6 µM | SN12C 69 µM | SNB-75 39.2 µM | SW-620 > 100 µM | UACC-257 > 100 µM | UO-31 70.8 µM

Cc1[nH]c2ncn(N)c(=N)c2c1Cc1ccccc1
inactive: 786-0 > 100 µM | A498 > 100 µM | COLO 205 > 100 µM | HCT-116 > 100 µM | HOP-62 47.2 µM | HT-29 67.9 µM | LOX IMVI 67.1 µM | MDA-MB-231 > 100 µM | OVCAR-4 > 100 µM | OVCAR-5 > 100 µM | RPMI-8226 > 100 µM | SF-295 > 100 µM | SK-MEL-28 > 100 µM | SN12C > 100 µM | SNB-75 42.7 µM | SW-620 > 100 µM | UACC-257 > 100 µM | UO-31 26.1 µM

CC1=C(c2cc(C(=O)Nc3cccc(C(F)(F)F)c3)nc(NC#N)n2)Sc2ccccc2N1
inactive: 786-0 97.5 µM | A498 > 100 µM | COLO 205 > 100 µM | HCT-116 > 100 µM | HOP-62 > 100 µM | HT-29 > 100 µM | LOX IMVI > 100 µM | NCI-H460 > 100 µM | OVCAR-4 31.7 µM | OVCAR-5 > 100 µM | RPMI-8226 > 100 µM | SF-295 > 100 µM | SK-MEL-28 > 100 µM | SN12C > 100 µM | SNB-75 > 100 µM | SW-620 > 100 µM | UACC-257 > 100 µM | UO-31 > 100 µM

Cc1ccc(C)c(COCCOCn2c(=O)[nH]c(=O)c3cc(Br)ccc32)c1
inactive: 786-0 29.4 µM | A498 > 100 µM | COLO 205 > 100 µM | HCT-116 > 100 µM | HOP-62 41.7 µM | HT-29 98.2 µM | LOX IMVI > 100 µM | MDA-MB-231 66.4 µM | NCI-H460 > 100 µM | OVCAR-4 47.8 µM | OVCAR-5 > 100 µM | SF-295 > 100 µM | SK-MEL-28 39.5 µM | SN12C > 100 µM | SNB-75 46.6 µM | SW-620 > 100 µM | UACC-257 72.1 µM | UO-31 > 100 µM

Cc1cc(C)nc(NS(=O)(=O)c2ccc(NC(=O)c3cccc4c(Nc5ccc(S(N)(=O)=O)cc5)c5ccccc5nc34)cc2)n1
inactive: 786-0 50.8 µM | A498 > 94.2 µM | COLO 205 26.6 µM | HCT-116 7.64 µM | HOP-62 26.7 µM | HT-29 34.9 µM | LOX IMVI 19.4 µM | NCI-H460 44.1 µM | OVCAR-4 35.1 µM | OVCAR-5 > 100 µM | RPMI-8226 12.8 µM | SF-295 > 66.5 µM | SK-MEL-28 3.09 µM | SN12C 16.1 µM | SNB-75 5.46 µM | SW-620 20.6 µM | UACC-257 28.1 µM | UO-31 > 100 µM

NC(=S)Nc1ccc(S(=O)(=O)Nc2ccc(S(N)(=O)=O)cc2)cc1
inactive: 786-0 > 100 µM | A498 > 100 µM | COLO 205 > 100 µM | HCT-116 > 100 µM | HOP-62 > 100 µM | HT-29 > 100 µM | LOX IMVI > 100 µM | MDA-MB-231 > 100 µM | NCI-H460 > 100 µM | OVCAR-4 > 100 µM | OVCAR-5 > 100 µM | RPMI-8226 > 100 µM | SF-295 > 100 µM | SK-MEL-28 > 100 µM | SN12C > 100 µM | SW-620 > 100 µM | UACC-257 > 100 µM | UO-31 > 100 µM

COc1ccc2c(c1)[n+]([O-])c(C(=O)CC(=O)C(=O)Nc1cccc(Cl)c1C)c(C)[n+]2[O-]
inactive: 786-0 > 100 µM | A498 > 100 µM | COLO 205 53.7 µM | HCT-116 > 100 µM | HOP-62 > 100 µM | HT-29 83 µM | LOX IMVI > 100 µM | NCI-H460 > 100 µM | OVCAR-4 > 100 µM | OVCAR-5 > 100 µM | RPMI-8226 83.6 µM | SF-295 > 100 µM | SK-MEL-28 > 100 µM | SN12C > 100 µM | SNB-75 > 100 µM | SW-620 68.9 µM | UACC-257 > 100 µM | UO-31 > 100 µM
